System: male C57BL/6J mice
Test: Acute single dose 120-min time-course experiment, in vivo glucose reduction
Set-up: unit not given here
Settings: 2 μM/kg, oral, n = 8, Mean ± SEM
Experimental: Acute single dose 120-min time-course experiments were carried out in male C57BL/6J or db/db mice, age 8-12 weeks, bred in-house. The animals were housed in groups of 6 animals per cage, for a week, in order to habituate them to vivarium conditions (25+4° C., 60-65% relative humidity, 12:12 h light: dark cycle, with lights on at 7.30 am). All the animal experiments were carried out according to the internationally valid guidelines following approval by the ‘Zydus Research Center animal ethical committee’.
[…] On the day of experiment, food was withdrawn from all the cages, water was given ad-libitum and were kept for overnight fasting. Vehicle (normal saline)/test/standard compounds were administered intraperitoneally (i.p.) or orally, on a body weight basis. Soon after the 0 min. blood collection from each animal, the subsequent blood collections were done at 30, 60 and 120 or upto 240 min., via retro-orbital route, under light ether anesthesia (Chen, D., et al., Diabetes Obesity Metabolism, 2005, 7, 307. Kim, J. G. et al., Diabetes, 2003, 52, 751).
The blood samples were centrifuged and the separated serum was immediately subjected for the glucose estimation. The serum for insulin estimation was stored at −70° C. until used for the insulin estimation. The glucose estimation was carried out with DPEC-GOD/POD method (Ranbaxy Fine Chemicals Limited, Diagnostic division, India), using Spectramax-190, in 96-microwell plate reader (Molecular devices Corporation, Sunnyvale, Calif.). […] The AUC and BCAUC obtained from graphs were analyzed for one way ANOVA, followed by Dunnett's post test, using Graph Pad prism software. Furthermore, the insulin estimation was carried out using rat/mouse insulin ELISA kit (Linco research, Missouri USA).

Structure (SMILES)	blood glucose level (in vivo glucose reduction) (0 min)	blood glucose level (in vivo glucose reduction) (30 min)	blood glucose level (in vivo glucose reduction) (60 min)	blood glucose level (in vivo glucose reduction) (120 min)
CCc1cc(OC)ccc1-c1ccc(CC(C)(NC(=O)C(C)(CC(=O)O)NC(=O)[C@H](CO)NC(=O)[C@@H](NC(=O)[C@H](Cc2ccccc2)NC(=O)[C@@H](NC(=O)CNC(=O)[C@H](CCC(N)=O)NC(=O)C(C)(C)NC(=O)[C@H](Cc2c[nH]cn2)NC(=O)[C@@H](N)C(C)C)[C@@H](C)O)[C@@H](C)O)C(=O)NC(CCCc2ccccc2)C(N)=O)cc1 (single isomer, unassigned) [Seq. ID. No. 59, VH-Aib-QGTFTS-(αMe-Asp)-(αMe-Bip(OMe))-(APPA)]	184 ± 2.5	115 ± 3.6	113 ± 4.2	110 ± 2.4
CCc1cc(OC)ccc1-c1ccc(CC(C)(NC(=O)C(C)(CC(=O)O)NC(=O)[C@H](CO)NC(=O)[C@@H](NC(=O)[C@H](Cc2ccccc2)NC(=O)[C@@H](NC(=O)CNC(=O)[C@H](CCC(=O)O)NC(=O)C2(C)CCCN2C(=O)[C@H](Cc2c[nH]cn2)NC(=O)[C@@H](N)C(C)C)[C@@H](C)O)[C@@H](C)O)C(=O)NC(CCCc2ccccc2)C(N)=O)cc1 (single isomer, unassigned) [Seq. ID. No. 64, VH-(αMe-Pro)-EGTFTS-(αMe-Asp)-(αMe-Bip(OMe))-(APPA)]	183 ± 2.4	116 ± 3.1	112 ± 4.8	110 ± 2.5
CCc1cc(OC)ccc1-c1ccc(CC(C)(NC(=O)C(C)(CC(=O)O)NC(=O)[C@H](CO)NC(=O)[C@@H](NC(=O)C(C)(Cc2c(F)cccc2F)NC(=O)[C@@H](NC(=O)CNC(=O)[C@H](CCC(N)=O)NC(=O)C2(C)CCCN2C(=O)[C@H](Cc2c[nH]cn2)NC(=O)[C@@H](N)C(C)C)[C@@H](C)O)[C@@H](C)O)C(=O)NC(CCCc2ccccc2)C(N)=O)cc1 (single isomer, unassigned) [Seq. ID. No. 76, VH-(αMe-Pro)-QGT-(αMe-2,6-diFPhe)-TS-(αMe-Asp)-(αMe-Bip(OMe))-(APPA)]	183 ± 2.4	116 ± 3.1	112 ± 4.8	110 ± 2.5
CCc1cc(OC)ccc1-c1ccc(CC(NC(=O)[C@H](CC(=O)O)NC(=O)[C@H](CO)NC(=O)[C@@H](NC(=O)C(C)(Cc2c(F)cccc2F)NC(=O)[C@@H](NC(=O)CNC(=O)[C@H](CCC(N)=O)NC(=O)[C@H](CO)NC(=O)[C@H](Cc2c[nH]cn2)NC(=O)[C@@H](N)C(C)C)[C@@H](C)O)[C@@H](C)O)C(=O)NC(C)(CCCc2ccccc2)C(N)=O)cc1 (single isomer, unassigned) [Seq. ID. No. 99, VHSQGT-(αMe-2,6-diF-Phe)-TSD-Bip(OMe)-(αMe-APPA)]	184 ± 2.5	118 ± 3.6	113 ± 4.2	110 ± 2.4
CCc1cc(OC)ccc1-c1ccc(CC(NC(=O)[C@H](CC(=O)O)NC(=O)[C@H](CO)NC(=O)[C@@H](NC(=O)C(C)(Cc2c(F)cccc2F)NC(=O)[C@@H](NC(=O)CNC(=O)[C@H](CCC(=O)O)NC(=O)C(C)(C)NC(=O)[C@H](Cc2c[nH]cn2)NC(=O)[C@@H](N)C(C)C)[C@@H](C)O)[C@@H](C)O)C(=O)NC(C)(CCCc2ccccc2)C(N)=O)cc1 (single isomer, unassigned) [Seq. ID. No. 105, VH-Aib-EGT-(αMe-2,6-diFPhe)-TSD-Bip(OMe)-(αMe-APPA)]	185 ± 2.1	115 ± 2.8	112 ± 4.9	111 ± 2.2

Source: patent US20120264685A1 (priority 2009, published 2012)
